Data as given in patent US8802597B2, “Herbicidal pyrimidines” (E I du Pont de Nemours and Company, priority 2003, dated 2014).

Legend:
Experiment in all cases: Test C pre/postemergence
Assay type in all cases: in vivo
[1] = test system: morningglory (Ipomoea coccinea); details: Postemergence; for Morningglory plant response rating: 125 g ai/ha, scale 0 to 100 (0 no effect, 100 complete control)
Description: (§1) Seeds or nutlets of plant species selected from bermudagrass (Cynodon dactylon), Surinam grass (Brachiaria decumbens), cocklebur (Xanthium strumarium), corn (Zea mays), crabgrass (Digitaria sanguinalis), woolly cupgrass (Eriochloa villosa), giant foxtail (Setaria faberii), goosegrass (Eleusine indica), johnsongrass (Sorghum halepense), kochia (Kochia scoparia), lambsquarters (Chenopodium album), morningglory (Ipomoea coccinea), eastern black nightshade (Solanum ptycanthum), yellow nutsedge (Cyperus esculentus), pigweed (Amaranthus retroflexus), common ragweed (Ambrosia elatior), soybean (Glycine max), common (oilseed) sunflower (Helianthus annuus), and velvetleaf (Abutilon theophrasti) were planted and treated preemergence with test chemicals formulated in a non-phytotoxic solvent mixture which included a surfactant.
(§2) At the same time, plants selected from these crop and weed species and also winter barley (Hordeum vulgare), blackgrass (Alopecurus myosuroides), canarygrass (Phalaris minor), chickweed (Stellaria media), downy brome (Bromus tectorum), green foxtail (Setaria viridis), Italian ryegrass (Lolium multiflorum), wheat (Triticum aestivum), wild oat (Avena fatua) and windgrass (Apera spica-venti) were treated with postemergence applications of some of the test chemicals formulated in the same manner. Plants ranged in height from 2 to 18 cm (1- to 4-leaf stage) for postemergence treatments. Plant species in the flooded paddy test consisted of rice (Oryza sativa), umbrella sedge (Cyperus difformis), duck salad (Heteranthera limosa) and barnyardgrass (Echinochloa crus-galli) grown to the 2-leaf stage for testing. Treated plants and controls were maintained in a greenhouse for 12 to 14 days, after which time all species were compared to controls and visually evaluated. Plant response ratings, summarized in Table C, are based on a scale of 0 to 100 where 0 is no effect and 100 is complete control. A dash (-) response means no test result.

[2] = test system: crabgrass (Digitaria sanguinalis); details: Postemergence; for Crabgrass plant response rating: 125 g ai/ha, scale 0 to 100 (0 no effect, 100 complete control)
Description: as §1, §2

[3] = test system: lambsquarters (Chenopodium album); details: Postemergence; for Lambsquarters plant response rating: 125 g ai/ha, scale 0 to 100 (0 no effect, 100 complete control)
Description: as §1, §2

[4] = test system: johnsongrass (Sorghum halepense); details: Postemergence; for Johnsongrass plant response rating: 125 g ai/ha, scale 0 to 100 (0 no effect, 100 complete control)
Description: as §1, §2

[5] = test system: giant foxtail (Setaria faberii); details: Postemergence; for Foxtail, Giant plant response rating: 125 g ai/ha, scale 0 to 100 (0 no effect, 100 complete control)
Description: as §1, §2

soybean (Glycine max) = details: Postemergence; for Soybean plant response rating: 125 g ai/ha, scale 0 to 100 (0 no effect, 100 complete control)
Description: as §1, §2

kochia (Kochia scoparia) = details: Postemergence; for Kochia plant response rating: 125 g ai/ha, scale 0 to 100 (0 no effect, 100 complete control)
Description: as §1, §2

[6] = test system: Surinam grass (Brachiaria decumbens); details: Postemergence; for Surinam Grass plant response rating: 125 g ai/ha, scale 0 to 100 (0 no effect, 100 complete control)
Description: as §1, §2

corn (Zea mays) = details: Postemergence
Description: as §1, §2

[7] = test system: cocklebur (Xanthium strumarium); details: Postemergence; for Cocklebur plant response rating: 125 g ai/ha, scale 0 to 100 (0 no effect, 100 complete control)
Description: as §1, §2

SMILES | Plant response rating (scale of 0 to 100), Morningglory ([1]; 31 g ai/ha) | Morningglory plant response rating [1] | Plant response rating (scale of 0 to 100), Crabgrass ([2]; 31 g ai/ha) | Plant response rating (scale of 0 to 100), Crabgrass ([2]; 62 g ai/ha) | Crabgrass plant response rating [2] | Plant response rating (scale of 0 to 100), Lambsquarters ([3]; 31 g ai/ha) | Plant response rating (scale of 0 to 100), Lambsquarters ([3]; 62 g ai/ha) | Lambsquarters plant response rating [3] | Plant response rating (scale of 0 to 100), Johnsongrass ([4]; 31 g ai/ha) | Plant response rating (scale of 0 to 100), Johnsongrass ([4]; 62 g ai/ha) | Johnsongrass plant response rating [4] | Plant response rating (scale of 0 to 100), Foxtail, Giant ([5]; 31 g ai/ha) | Plant response rating (scale of 0 to 100), Foxtail, Giant ([5]; 62 g ai/ha) | Foxtail, Giant plant response rating [5] | Plant response rating (scale of 0 to 100), Soybean (soybean (Glycine max); 31 g ai/ha) | Plant response rating (scale of 0 to 100), Soybean (soybean (Glycine max); 62 g ai/ha) | Soybean plant response rating (soybean (Glycine max)) | Plant response rating (scale of 0 to 100), Kochia (kochia (Kochia scoparia); 31 g ai/ha) | Plant response rating (scale of 0 to 100), Kochia (kochia (Kochia scoparia); 62 g ai/ha) | Kochia plant response rating (kochia (Kochia scoparia)) | further results
Nc1nc(-c2ccc(Br)cc2)nc(C(=O)O)c1Br [Compound 136] | 85 | 100 | 75 | 75 | 75 | 95 | 95 | 95 | 85 | 85 | 95 | 75 | 75 | 85 | 100 | 100 | 100 | 80 | 90 | 90 | Plant response rating (scale of 0 to 100), Morningglory ([1]; 16 g ai/ha): 65; Plant response rating (scale of 0 to 100), Morningglory ([1]; 62 g ai/ha): 90; Plant response rating (scale of 0 to 100), Crabgrass ([2]; 16 g ai/ha): 60; Plant response rating (scale of 0 to 100), Lambsquarters ([3]; 16 g ai/ha): 95; Plant response rating (scale of 0 to 100), Johnsongrass ([4]; 16 g ai/ha): 60; Plant response rating (scale of 0 to 100), Foxtail, Giant ([5]; 16 g ai/ha): 65; Plant response rating (scale of 0 to 100), Soybean (soybean (Glycine max); 16 g ai/ha): 95; Plant response rating (scale of 0 to 100), Kochia (kochia (Kochia scoparia); 16 g ai/ha): 75; Plant response rating (scale of 0 to 100), Surinam Grass ([6]; 16 g ai/ha): 55; Plant response rating (scale of 0 to 100), Surinam Grass ([6]; 31 g ai/ha): 65; Plant response rating (scale of 0 to 100), Surinam Grass ([6]; 62 g ai/ha): 65; Surinam Grass plant response rating [6]: 70; Plant response rating (scale of 0 to 100), Corn (corn (Zea mays); 16 g ai/ha): 35; Plant response rating (scale of 0 to 100), Corn (corn (Zea mays); 31 g ai/ha): 35; Plant response rating (scale of 0 to 100), Corn (corn (Zea mays); 62 g ai/ha): 65; Corn plant response rating (corn (Zea mays); 125 g ai/ha, scale 0 to 100 (0 no effect, 100 complete control)): 75; Plant response rating (scale of 0 to 100), Cocklebur ([7]; 16 g ai/ha): 95; Plant response rating (scale of 0 to 100), Cocklebur ([7]; 31 g ai/ha): 100; Plant response rating (scale of 0 to 100), Cocklebur ([7]; 62 g ai/ha): 100; Cocklebur plant response rating [7]: 100
Nc1nc(-c2ccc(Cl)cc2)nc(C(=O)O)c1Br [Compound 88] | 60 | 85 | 75 | 80 | 80 | 90 | 95 | 95 | 30 | 45 | 75 | 55 | 75 | 80 | 100 | 100 | 100 | 85 | 95 | 95 | Plant response rating, Morningglory ([1]; 250 g ai/ha, scale 0 to 100): 85; Plant response rating, Crabgrass ([2]; 250 g ai/ha, scale 0 to 100): 85; Plant response rating, Lambsquarters ([3]; 250 g ai/ha, scale 0 to 100): 100; Plant response rating, Johnsongrass ([4]; 250 g ai/ha, scale 0 to 100): 85; Plant response rating, Foxtail, Giant ([5]; 250 g ai/ha, scale 0 to 100): 85; Plant response rating, Soybean (soybean (Glycine max); 250 g ai/ha, scale 0 to 100): 100; Plant response rating, Kochia (kochia (Kochia scoparia); 250 g ai/ha, scale 0 to 100): 95; Plant response rating (scale of 0 to 100), Surinam Grass ([6]; 31 g ai/ha): 45; Plant response rating (scale of 0 to 100), Surinam Grass ([6]; 62 g ai/ha): 60; Surinam Grass plant response rating [6]: 80; Plant response rating, Surinam Grass ([6]; 250 g ai/ha, scale 0 to 100): 85; Plant response rating (scale of 0 to 100), Corn (corn (Zea mays); 31 g ai/ha): 0; Plant response rating (scale of 0 to 100), Corn (corn (Zea mays); 62 g ai/ha): 0; Plant response rating, Corn (corn (Zea mays); 250 g ai/ha, scale 0 to 100): 30; Plant response rating (scale of 0 to 100), Cocklebur ([7]; 31 g ai/ha): 90; Plant response rating (scale of 0 to 100), Cocklebur ([7]; 62 g ai/ha): 90; Cocklebur plant response rating [7]: 90; Plant response rating, Cocklebur ([7]; 250 g ai/ha, scale 0 to 100): 90
